Assay results taken from patent US10070645B2, “N-cycloalkyl-N-{[2-(1-substitutedcycloalkyl)phenyl]methylene}-(thio)carboxamide derivatives” (BAYER CROPSCIENCE AKTIENGESELLSCHAFT, priority 2013, dated 2018).

assay: log P by HPLC on a reversed-phase column (C 18), EEC Directive 79/831 Annex V.A8; type: physicochemical; conditions: HPLC on reversed-phase column (C 18), 40° C., 0.1% aqueous formic acid and acetonitrile, linear gradient 10% to 90% acetonitrile
Description: In table 1, the log P values were determined in accordance with EEC Directive 79/831 Annex V.A8 by HPLC (High Performance Liquid Chromatography) on a reversed-phase column (C 18), using the method described below:
Temperature: 40° C.; Mobile phases: 0.1% aqueous formic acid and acetonitrile; linear gradient from 10% acetonitrile to 90% acetonitrile.
Calibration was carried out using unbranched alkan-2-ones (comprising 3 to 16 carbon atoms) with known log P values (determination of the log P values by the retention times using linear interpolation between two successive alkanones). lambda-max-values were determined using UV-spectra from 200 nm to 400 nm and the peak values of the chromatographic signals.

logP | Molecule
4.11 | Cc1ccc(C2(C(F)(F)F)CC2)c(CN(C(=O)c2c(C(F)F)nn(C)c2F)C2CC2)c1 [I.167]
4.59 | Cn1nc(C(F)F)c(C(=O)N(Cc2cc(C3CC3)ccc2C2(C)CC2(Cl)Cl)C2CC2)c1F (racemic) [I.169]

The remaining lines, values behind:

Molecule | logP
Cn1nc(C(F)F)c(C(=O)N(Cc2c(C3(C)CC3(Cl)Cl)ccc(Cl)c2F)C2CC2)c1F (racemic) [I.176] | 4.46
Cn1nc(C(F)F)c(C(=O)N(Cc2cc(F)ccc2C2(C(F)(F)F)CC2)C2CC2)c1Cl [I.166] | 3.96
Cc1ccc(C2(C)CC2(Cl)Cl)c(CN(C(=O)c2c(C(F)F)nn(C)c2F)C2CC2)c1F (racemic) [I.179] | 4.41
Cn1nc(C(F)F)c(C(=O)N(Cc2c(C3(C)CC3(Cl)Cl)ccc(Cl)c2F)C2CC2)c1Cl (racemic) [I.175] | 4.61

same assay, conditions: HPLC, reversed-phase column (C 18), 40° C., 0.1% aqueous formic acid and acetonitrile, linear gradient 10% to 90% acetonitrile

logP | Molecule
4.67 | C=C(C)c1ccc(C2(C)CC2)c(CN(C(=O)c2c(C(F)F)nn(C)c2F)C2CC2)c1 [I.083]
3.57 | COC1(c2ccc(C)cc2CN(C(=O)c2c(C(F)F)nn(C)c2F)C2CC2)CC1 [I.122]
3.70 | Cn1nc(C(F)F)c(C(=O)N(Cc2cc(Cl)ccc2C2(C(F)F)CC2)C2CC2)c1F [I.149]
4.21 | Cc1ccc(CN(C(=O)c2c(C(F)F)nn(C)c2F)C2CC2)c(C2(C)CC2)c1 [I.026]
4.59 | CCC1(c2cc(C)ccc2CN(C(=O)c2c(C(F)F)nn(C)c2F)C2CC2)CC1 [I.104]
4.24 | Cn1nc(C(F)F)c(C(=O)N(Cc2c(C3(C)CC3)ccc(Cl)c2F)C2CC2)c1F [I.084]
3.69 | COc1ccc(CN(C(=O)c2c(C(F)F)nn(C)c2F)C2CC2)c(C2(C)CC2)c1 [I.028]
3.79 | Cn1nc(C(F)F)c(C(=O)N(Cc2c(F)cccc2C2(C)CC2)C2CC2)c1F [I.089]
4.91 | Cn1nc(C(F)F)c(C(=O)N(Cc2ccc(Oc3ccccc3)cc2C2(C)CC2)C2CC2)c1F [I.032]
3.85 | Cn1nc(C(F)F)c(C(=O)N(Cc2ccccc2C2(C)CC2)C2CC2)c1F [I.001]
4.82 | Cn1nc(C(F)F)c(C(=S)N(Cc2cc(Cl)ccc2C2(C)CC2)C2CC2)c1F [I.062]
5.48 | Cn1nc(C(F)F)c(C(=O)N(Cc2cc(-c3csc4ccccc34)ccc2C2(C)CC2)C2CC2)c1F [I.081]
4.64 | Cn1nc(C(F)F)c(C(=S)N(Cc2cc(F)ccc2C2(C)CC2)C2CC2)c1Cl [I.069]
4.90 | CC(C)c1ccc(CN(C(=O)c2c(C(F)F)nn(C)c2F)C2CC2)c(C2(C)CC2)c1 [I.025]

Further lines, the molecule ahead of its results:

Molecule | logP
CCC1(c2cc(Cl)ccc2CN(C(=O)c2c(C(F)F)nn(C)c2Cl)C2CC2)CC1 [I.103] | 4.82
Cn1nc(C(F)F)c(C(=O)N(Cc2cc(F)ccc2C2(C(F)F)CC2)C2CC2)c1Cl [I.152] | 3.53
CCC1(c2ccccc2CN(C(=S)c2c(C(F)F)nn(C)c2Cl)C2CC2)CC1 [I.099] | 5.00
Cc1ccc(C2(Cl)CC2)c(CN(C(=O)c2c(C(F)F)nn(C)c2Cl)C2CC2)c1 [I.133] | 4.06
C#CC1(c2ccc(C)cc2CN(C(=O)c2c(C(F)F)nn(C)c2Cl)C2CC2)CC1 [I.093] | 3.78
CCC1(c2ccc(C)cc2CN(C(=O)c2c(C(F)F)nn(C)c2Cl)C2CC2)CC1 [I.112] | 4.77
Cc1ccc(C2(C)CC2Cl)c(CN(C(=O)c2c(C(F)F)nn(C)c2F)C2CC2)c1Cl (stereo not shown) [I.140] | 4.58
CCC1(c2cc(C(F)(F)F)ccc2CN(C(=O)c2c(C(F)F)nn(C)c2F)C2CC2)CC1 [I.100] | 4.75
CCC1(c2cc(C(F)(F)F)ccc2CN(C(=O)c2c(C(F)F)nn(C)c2Cl)C2CC2)CC1 [I.101] | 4.86
CCCC1(c2ccc(C)cc2CN(C(=O)c2c(C(F)F)nn(C)c2Cl)C2CC2)CC1 [I.131] | 5.19
CCC1(c2ccc(C(F)(F)F)cc2CN(C(=O)c2c(C(F)F)nn(C)c2Cl)C2CC2)CC1 [I.109] | 4.85
Cn1nc(C(F)F)c(C(=O)N(Cc2ccccc2C2(C(F)F)CC2)C2CC2)c1Cl [I.143] | 3.46
Cn1nc(C(F)F)c(C(=O)N(Cc2ccccc2C2(C(F)F)CC2)C2CC2)c1F [I.142] | 3.33

same assay, conditions: Table 3 (amines of formula II); HPLC C 18, 40° C., 0.1% aqueous formic acid and acetonitrile

Molecule | chromatographic logP
Cc1ccc(C2(C#C[Si](C)(C)C)CC2)c(CNC2CC2)c1 [II.19, N-(5-methyl-2-{1-[(trimethylsilyl)ethynyl]cyclopropyl}benzyl)cyclopropanamine] | 2.05

same assay, conditions: Table 4 (aldehydes of formula IV); HPLC C 18, 40° C., 0.1% aqueous formic acid and acetonitrile

Molecule | logP
1-(2-formyl-4-methylphenyl)cyclopropanecarbonitrile [IV.16] | 2.08
3-fluoro-2-(1-methylcyclopropyl)benzaldehyde [IV.14] | 3.13

same assay, conditions: reversed-phase HPLC column (C 18); Table 3 (amines of formula II); HPLC C 18, 40° C., 0.1% aqueous formic acid and acetonitrile

chromatographic logP | Molecule
0.92 | FC(F)C1(c2ccccc2CNC2CC2)CC1 [II.36, N-{2-[1-(difluoromethyl)cyclopropyl]benzyl}cyclopropanamine]
1.25 | FC(F)(F)C1(c2ccccc2CNC2CC2)CC1 [II.45, N-{2-[1-(trifluoromethyl)cyclopropyl]benzyl}cyclopropanamine]
1.43 | CC1(c2ccc(Br)cc2CNC2CC2)CC1 [II.09, N-[5-bromo-2-(1-methylcyclopropyl)benzyl]cyclopropanamine]
1.43 | CC1(c2c(CNC3CC3)ccc3c2OCO3)CC1 [II.03, N-{[4-(1-methylcyclopropyl)-1,3-benzodioxol-5-yl]methyl}cyclopropanamine]
1.63 | CCC1(c2ccc(C)cc2CNC2CC2)CC1 [II.30, N-[2-(1-ethylcyclopropyl)-5-methylbenzyl]cyclopropanamine]
1.67 | Cc1ccc(C2(C3CC3)CC2)c(CNC2CC2)c1 [II.35, N-{2-[1,1′-bi(cyclopropyl)-1-yl]-5-methylbenzyl}cyclopropanamine]
1.49 | COCC1(c2ccc(C)cc2CNC2CC2)CC1 [II.22, N-{2-[1-(methoxymethyl)cyclopropyl]-5-methylbenzyl}cyclopropanamine]
1.45 | Cc1ccc(C2(C)CC2)c(CNC2(C)CC2)c1 [II.13, 1-methyl-N-[5-methyl-2-(1-methylcyclopropyl)benzyl]cyclopropanamine]
1.22 | C#CC1(c2ccc(Cl)cc2CNC2CC2)CC1 [II.16, N-[5-chloro-2-(1-ethynylcyclopropyl)benzyl]cyclopropanamine]
1.65 | CCC1(c2cc(Cl)ccc2CNC2CC2)CC1 [II.25, N-[4-chloro-2-(1-ethylcyclopropyl)benzyl]cyclopropanamine]

same assay, conditions: reversed-phase HPLC column (C 18); Table 4 (aldehydes of formula IV); HPLC C 18, 40° C., 0.1% aqueous formic acid and acetonitrile

chromatographic logP | Molecule
3.85 | Cc1cc(C=O)c(C2(C)CC2)cc1C [IV.07, 4,5-dimethyl-2-(1-methylcyclopropyl)benzaldehyde]
2.92 | COc1ccc(C=O)c(C2(C)CC2)c1 [IV.05, 4-methoxy-2-(1-methylcyclopropyl)benzaldehyde]
3.02 | CC1(c2ccccc2C=O)CC1 [IV.01, 2-(1-methylcyclopropyl)benzaldehyde]
4.29 | CCC1(c2cc(C(F)(F)F)ccc2C=O)CC1 [IV.17, 2-(1-ethylcyclopropyl)-4-(trifluoromethyl)benzaldehyde]
4.69 | CCCC1(c2cc(Cl)ccc2C=O)CC1 [IV.19, 4-chloro-2-(1-propylcyclopropyl)benzaldehyde]

same assay, conditions: reversed-phase HPLC column (C 18); preparation examples

chromatographic logP | Molecule
4.91 | C=C(C)c1ccc(Cl)cc1Br [2-bromo-4-chloro-1-(prop-1-en-2-yl)benzene]
